What is called EC50 is the concentration needed to bring the measured effect to its halfway point.

This passage reports EC50 results from patent US10406207B2, “Peptide conjugates of GLP-1 receptor agonists and gastrin and their use” (priority 2010, dated 2019).

The target in one assay is T1, human GLP-1 R (Homo sapiens, UniProt P43220).
T1 construct: expressed in transfected cells
The experiment in a line: Human GLP-1 receptor efficacy assay (cAMP induction, FlashPlate). It counts as cell-based. The following applies: read-out: hGLP-1 R EC50. As to the method: On the day of analysis, growth medium was removed and the cells were washed once with 200 μl Tyrode buffer [Tyrode's Salts (9.6 g/l), 10 mM HEPES, pH 7.4]. […] The reaction was stopped by addition of 25 μl 0.5 M HCl and incubated on ice for 60 min.

Another assay concerns the target T2, human CCK-B R (Homo sapiens, UniProt P32239).
T2 construct: expressed in transfected cells
T2 sequence (P32239 1-447): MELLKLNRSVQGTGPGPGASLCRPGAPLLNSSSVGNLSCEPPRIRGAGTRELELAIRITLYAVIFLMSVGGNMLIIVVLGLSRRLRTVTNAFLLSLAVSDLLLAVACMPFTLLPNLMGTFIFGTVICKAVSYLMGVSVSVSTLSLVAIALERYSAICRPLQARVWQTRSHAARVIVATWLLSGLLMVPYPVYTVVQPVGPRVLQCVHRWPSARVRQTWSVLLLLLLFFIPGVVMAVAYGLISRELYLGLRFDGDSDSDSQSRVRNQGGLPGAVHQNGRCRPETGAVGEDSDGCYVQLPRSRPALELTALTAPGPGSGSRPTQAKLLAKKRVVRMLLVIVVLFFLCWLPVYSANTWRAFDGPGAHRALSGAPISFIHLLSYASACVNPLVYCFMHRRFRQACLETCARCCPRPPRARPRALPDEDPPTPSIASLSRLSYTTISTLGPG
The experiment in a line: Human CCK-B receptor efficacy assay (AlphaScreen SureFire p-ERK). It counts as cell-based. The settings on record: read-out: hCCK-B R EC50. In general terms: Alpha assays give light when donor and acceptor beads are brought close together.

Where two headings read alike, the source gives them in different places. Numbered stars: 1 amine (or outer) side, 2 acyl side, 3 side chain; on linkers, the order of the positions; unused ones are H or OH. Square brackets hold non-standard residues; d marks the D form. Side chains are listed from the residue outwards. Peptide text beside a SMILES is read from it. * marks the point of attachment. γGlu = O=C(O)[C@H](CCC(=O)[*:2])N[*:1]; Palmitoyl = CCCCCCCCCCCCCCCC(=O)*; Orn = NCCC[C@H](N)C(=O)O; AEEA = NCCOCCOCC(=O)O

T1 sequence (P43220 24-463): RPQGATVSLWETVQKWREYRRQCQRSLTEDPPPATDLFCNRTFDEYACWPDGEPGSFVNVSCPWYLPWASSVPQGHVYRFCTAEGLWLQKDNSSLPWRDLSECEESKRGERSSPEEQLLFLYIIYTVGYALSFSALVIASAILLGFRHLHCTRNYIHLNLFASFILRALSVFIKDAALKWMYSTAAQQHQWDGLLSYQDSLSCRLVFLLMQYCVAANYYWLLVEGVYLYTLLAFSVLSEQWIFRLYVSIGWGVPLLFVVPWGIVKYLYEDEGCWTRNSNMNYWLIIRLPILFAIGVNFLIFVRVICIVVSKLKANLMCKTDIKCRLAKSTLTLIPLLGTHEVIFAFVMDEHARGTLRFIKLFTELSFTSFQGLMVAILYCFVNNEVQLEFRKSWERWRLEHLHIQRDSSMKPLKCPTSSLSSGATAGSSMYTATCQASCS

`CC[C@H](C)[C@H](NC(=O)[C@H](Cc1ccccc1)NC(=O)[C@H](CC(C)C)NC(=O)[C@H](CCCNC(=N)N)NC(=O)[C@@H](NC(=O)[C@H](C)NC(=O)[C@H](CCC(=O)O)NC(=O)[C@H](CCC(=O)O)NC(=O)[C@H](CCC(=O)O)NC(=O)[C@H](CC(C)C)NC(=O)[C@H](Cc1ccc(O)cc1)NC(=O)[C@H](CCCCN)NC(=O)[C@H](CO)NC(=O)[C@H](CC(C)C)NC(=O)[C@H](CCC(=O)O)NC(=O)[C@H](CO)NC(=O)[C@@H](NC(=O)[C@H](Cc1ccccc1)NC(=O)[C@@H](NC(=O)CNC(=O)[C@H](CCC(=O)O)NC(=O)CNC(=O)[C@@H](N)Cc1c[nH]cn1)[C@@H](C)O)[C@@H](C)O)C(C)C)C(=O)N[C@@H](CCC(=O)O)C(=O)N[C@@H](Cc1ccccc1)C(=O)N[C@@H](CC(C)C)C(=O)N[C@@H](CCCCN)C(=O)N[C@@H](CCCN)C(=O)NCCOCCOCC(=O)N[C@@H](Cc1ccc(O)cc1)C(=O)NCC(=O)N[C@@H](Cc1c[nH]c2ccccc12)C(=O)N[C@@H](CC(C)C)C(=O)N[C@@H](CC(=O)O)C(=O)N[C@@H](Cc1ccccc1)C(N)=O` [Compound 103, [Glu9,Leu14,Phe25,Tyr13]Exendin-4(1-27)-Orn-Peg3-[Leu4]Gastrin6] (H-HGEGTFTSELSKYLEEEAVRLFIEFLK[Orn][AEEA]YGWLDF-NH2): the results for the EC50 at human GLP-1 R (Table 2) and on human CCK-B R (Table 2) were 0.12 nM and 100 nM, respectively.
Turning to `CCCCCCCCCCCCCCCC(=O)N[C@@H](CCC(=O)NCCCC[C@H](NC(=O)CNC(=O)[C@H](CCCNC(=N)N)NC(=O)[C@@H](NC(=O)[C@H](CC(C)C)NC(=O)[C@H](Cc1c[nH]c2ccccc12)NC(=O)[C@H](C)NC(=O)[C@@H](NC(=O)[C@H](Cc1ccccc1)NC(=O)[C@H](CCC(=O)O)NC(=O)[C@H](CCCNC(=N)N)NC(=O)[C@H](C)NC(=O)[C@H](C)NC(=O)[C@H](CCC(N)=O)NC(=O)CNC(=O)[C@H](CCC(=O)O)NC(=O)[C@H](CC(C)C)NC(=O)[C@H](Cc1ccc(O)cc1)NC(=O)[C@H](CO)NC(=O)[C@H](CO)NC(=O)[C@@H](NC(=O)[C@H](CC(=O)O)NC(=O)[C@H](CO)NC(=O)[C@@H](NC(=O)[C@H](Cc1ccccc1)NC(=O)[C@@H](NC(=O)CNC(=O)[C@H](CCC(=O)O)NC(=O)CNC(=O)[C@@H](N)Cc1c[nH]cn1)[C@@H](C)O)[C@@H](C)O)C(C)C)[C@@H](C)CC)C(C)C)C(=O)NCC(=O)NCCOCCOCC(=O)NCCOCCOCC(=O)N[C@@H](Cc1ccc(O)cc1)C(=O)NCC(=O)N[C@@H](Cc1c[nH]c2ccccc12)C(=O)N[C@@H](CC(C)C)C(=O)N[C@@H](CC(=O)O)C(=O)N[C@@H](Cc1ccccc1)C(N)=O)C(=O)O` [Compound 110, [Arg26,34,Gly8,Lys(Hexadecanoyl-isoGlu)36]GLP-1(7-37)-Peg3-Peg3-[Leu4]Gastrin6] (H-HGEGTFTSDVSSYLEGQAAREFIAWLVRGK([γGlu-Palmitoyl])G[AEEA][AEEA]YGWLDF-NH2), the EC50 was 0.12 nM on human GLP-1 R (Table 3) and 29 nM at human CCK-B R (Table 3).
As to `CC[C@H](C)[C@H](NC(=O)[C@H](Cc1ccccc1)NC(=O)[C@H](CC(C)C)NC(=O)[C@H](CCCNC(=N)N)NC(=O)[C@@H](NC(=O)[C@H](C)NC(=O)[C@H](CCC(=O)O)NC(=O)[C@H](CCC(=O)O)NC(=O)[C@H](CCC(=O)O)NC(=O)[C@H](CCSC)NC(=O)[C@H](Cc1ccc(O)cc1)NC(=O)[C@H](CCCCN)NC(=O)[C@H](CO)NC(=O)[C@H](CC(C)C)NC(=O)[C@H](CC(=O)O)NC(=O)[C@H](CO)NC(=O)[C@@H](NC(=O)[C@H](Cc1ccccc1)NC(=O)[C@@H](NC(=O)CNC(=O)[C@H](CCC(=O)O)NC(=O)CNC(=O)[C@@H](N)Cc1c[nH]cn1)[C@@H](C)O)[C@@H](C)O)C(C)C)C(=O)N[C@@H](CCC(=O)O)C(=O)N[C@@H](Cc1c[nH]c2ccccc12)C(=O)N[C@@H](CC(C)C)C(=O)N[C@@H](CCCCN)C(=O)N[C@@H](CC(N)=O)C(=O)NCCOCCOCC(=O)NCCOCCOCC(=O)N[C@@H](Cc1ccc(O)cc1)C(=O)NCC(=O)N[C@@H](Cc1c[nH]c2ccccc12)C(=O)N[C@@H](CC(C)C)C(=O)N[C@@H](CC(=O)O)C(=O)N[C@@H](Cc1ccccc1)C(N)=O` [Compound 65, [Tyr13]Exendin-4(1-28)-Peg3-Peg3-[Leu4]Gastrin6] (H-HGEGTFTSDLSKYMEEEAVRLFIEWLKN[AEEA][AEEA]YGWLDF-NH2), the results for the EC50 at human GLP-1 R (Table 2) and on human CCK-B R (Table 2) were 0.046 nM and 12 nM, respectively.
On to `CC[C@H](C)[C@H](NC(=O)[C@H](Cc1ccccc1)NC(=O)[C@H](CC(C)C)NC(=O)[C@H](CCCN)NC(=O)[C@@H](NC(=O)[C@H](C)NC(=O)[C@H](CCC(=O)O)NC(=O)[C@H](CCC(=O)O)NC(=O)[C@H](CCC(=O)O)NC(=O)[C@H](CCSC)NC(=O)[C@H](CCC(N)=O)NC(=O)[C@H](CCCCN)NC(=O)[C@H](CO)NC(=O)[C@H](CC(C)C)NC(=O)[C@H](CC(=O)O)NC(=O)[C@H](CO)NC(=O)[C@@H](NC(=O)[C@H](Cc1ccccc1)NC(=O)[C@@H](NC(=O)CNC(=O)[C@H](CCC(=O)O)NC(=O)CNC(=O)[C@@H](N)Cc1c[nH]cn1)[C@@H](C)O)[C@@H](C)O)C(C)C)C(=O)N[C@@H](CCC(=O)O)C(=O)N[C@@H](Cc1c[nH]c2ccccc12)C(=O)N[C@@H](CC(C)C)C(=O)N[C@@H](CCCCN)C(=O)N[C@@H](CC(N)=O)C(=O)NCCOCCOCC(=O)NCCOCCOCC(=O)N[C@@H](Cc1ccc(O)cc1)C(=O)NCC(=O)N[C@@H](Cc1c[nH]c2ccccc12)C(=O)N[C@@H](CC(C)C)C(=O)N[C@@H](CC(=O)O)C(=O)N[C@@H](Cc1ccccc1)C(N)=O` [Compound 66, [Orn20]Exendin-4(1-28)-Peg3-Peg3-[Leu4]Gastrin6] (H-HGEGTFTSDLSKQMEEEAV[Orn]LFIEWLKN[AEEA][AEEA]YGWLDF-NH2), for which the values for the EC50 at human GLP-1 R (Table 2) and on human CCK-B R (Table 2) were 0.038 nM and 15 nM, respectively.
Consider “H-HGEGTFTSELSKYLEEEAVRLFIEFLKYGWLDF-NH2 [Compound 101, [Glu9,Leu14,Phe25,Tyr13]Exendin-4(1-27)-[Leu4]Gastrin6]”, for which the figures for the EC50 at human GLP-1 R (Table 2) and on human CCK-B R (Table 2) were 0.11 nM and 30 nM, respectively.
`CC[C@H](C)[C@H](NC(=O)[C@H](Cc1ccccc1)NC(=O)[C@H](CC(C)C)NC(=O)[C@H](CCCNC(=N)N)NC(=O)[C@@H](NC(=O)[C@H](C)NC(=O)[C@H](CCC(=O)O)NC(=O)[C@H](CCC(=O)O)NC(=O)[C@H](CCC(=O)O)NC(=O)[C@H](CC(C)C)NC(=O)[C@H](Cc1ccc(O)cc1)NC(=O)[C@H](CCCCN)NC(=O)[C@H](CO)NC(=O)[C@H](CC(C)C)NC(=O)[C@H](CCC(=O)O)NC(=O)[C@H](CO)NC(=O)[C@@H](NC(=O)[C@H](Cc1ccccc1)NC(=O)[C@@H](NC(=O)CNC(=O)[C@H](CCC(=O)O)NC(=O)CNC(=O)[C@@H](N)Cc1c[nH]cn1)[C@@H](C)O)[C@@H](C)O)C(C)C)C(=O)N[C@@H](CCC(=O)O)C(=O)N[C@@H](Cc1ccccc1)C(=O)N[C@@H](CC(C)C)C(=O)N[C@@H](CCCCN)C(=O)N[C@@H](CCCN)C(=O)N[C@@H](CCCN)C(=O)N[C@@H](Cc1c[nH]c2ccccc12)C(=O)N[C@@H](CC(C)C)C(=O)N[C@@H](CC(=O)O)C(=O)N[C@@H](Cc1ccccc1)C(N)=O` [Compound 100, [Glu9,Leu14,Phe25,Tyr13]Exendin-4(1-27)-Orn-Orn-[Leu2]Gastrin4] (H-HGEGTFTSELSKYLEEEAVRLFIEFLK[Orn][Orn]WLDF-NH2): the EC50 turned out to be 0.11 nM on human GLP-1 R (Table 2) and 860 nM at human CCK-B R (Table 2).
With `CC[C@H](C)[C@H](NC(=O)[C@H](Cc1ccccc1)NC(=O)[C@H](CC(C)C)NC(=O)[C@H](CCCNC(=N)N)NC(=O)[C@@H](NC(=O)[C@H](C)NC(=O)[C@H](CCC(=O)O)NC(=O)[C@H](CCC(=O)O)NC(=O)[C@H](CCC(=O)O)NC(=O)[C@H](CC(C)C)NC(=O)[C@H](Cc1ccc(O)cc1)NC(=O)[C@H](CCCCN)NC(=O)[C@H](CO)NC(=O)[C@H](CC(C)C)NC(=O)[C@H](CCC(=O)O)NC(=O)[C@H](CO)NC(=O)[C@@H](NC(=O)[C@H](Cc1ccccc1)NC(=O)[C@@H](NC(=O)CNC(=O)[C@H](CCC(=O)O)NC(=O)CNC(=O)[C@@H](N)Cc1c[nH]cn1)[C@@H](C)O)[C@@H](C)O)C(C)C)C(=O)N[C@@H](CCC(=O)O)C(=O)N[C@@H](Cc1ccccc1)C(=O)N[C@@H](CC(C)C)C(=O)N[C@@H](CCCCN)C(=O)NCCOCCOCC(=O)N[C@@H](CCCN)C(=O)N[C@@H](Cc1c[nH]c2ccccc12)C(=O)N[C@@H](CC(C)C)C(=O)N[C@@H](CC(=O)O)C(=O)N[C@@H](Cc1ccccc1)C(N)=O` [Compound 99, [Glu9,Leu14,Phe25,Tyr13]Exendin-4(1-27)-Peg3-Orn-[Leu2]Gastrin4] (H-HGEGTFTSELSKYLEEEAVRLFIEFLK[AEEA][Orn]WLDF-NH2), the EC50 at human GLP-1 R (Table 2) was determined as 0.041 nM; on human CCK-B R (Table 2), 51 nM.
